This is an account of results in US20230024302A1, “2,3,5-TRISUBSTITUTED PYRAZOLO[1,5-A]PYRIMIDINE COMPOUNDS” (Arcus Biosciences, Inc., priority 2019, published 2023).

Where two headings read alike, the source gives them in different places. A value given as a limit tells only on which side of the number the result lay.

In general, IC50 refers to the concentration needed to halve the response being measured.

In one experiment the target is T1, PI3Kγ (p120γ) (Homo sapiens, UniProt P48736).
T1 construct: purchased Promega V1761
Briefly: Inhibition of PI3K kinase activity (ADP Glo), PI3Kγ. Particulars: read-out: biochemical potency (PI3Kγ IC50). A digest of the protocol: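 Recombinant p120γ (8 nM, 2× stock) was preincubated with compound for 1 h at rt in HEPES pH 7.4, NaCl, MgCl2 and 0.05% BSA. Reaction was started with PIP2 (0.1 mg/ml, 2×) and ATP (50 μM, 2×) and ran 60 min at rt. ADP formed was read by ADP-Glo luminescence, and IC50 came from a 4-parameter fit.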
For orientation: ADP-Glo first removes unused ATP, then detects ADP through luciferase.

For another experiment, the target named is T2, PI3Kγ (Homo sapiens, UniProt P48736).
T2 construct: host or cells: THP-1
The experiment can be described thus: PI3Kγ cellular assay in THP-1 cells (AKT pS473 AlphaLISA). Type of experiment: cell-based. A digest of the protocol: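 Serum-starved THP-1 cells (1.8×10^5/well, serum-free DMEM) treated with compounds from 4 nM to 30 μM in 2% DMSO, then stimulated and lysed.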
For orientation: In Alpha technology, singlet oxygen from a donor bead excites a nearby acceptor bead.

The mark [1] stands for this setting: AKT pS473, read-out: cellular potency (PI3Kγ IC50).
The mark [2] stands for this setting: Table 2, rhMCP-1 stimulated AKT pS473, read-out: cellular potency (PI3Kγ IC50).
The mark [3] stands for this setting: Table 6, rhMCP-1 stimulated AKT pS473, read-out: cellular potency (PI3Kγ IC50).
[4] abbreviates: Table 1, rhMCP-1 stimulated AKT pS473, read-out: cellular potency (PI3Kγ IC50).
Where [5] appears, read: Table 3, rhMCP-1 stimulated AKT pS473, read-out: cellular potency (PI3Kγ IC50).

T2 sequence (P48736 whole entry): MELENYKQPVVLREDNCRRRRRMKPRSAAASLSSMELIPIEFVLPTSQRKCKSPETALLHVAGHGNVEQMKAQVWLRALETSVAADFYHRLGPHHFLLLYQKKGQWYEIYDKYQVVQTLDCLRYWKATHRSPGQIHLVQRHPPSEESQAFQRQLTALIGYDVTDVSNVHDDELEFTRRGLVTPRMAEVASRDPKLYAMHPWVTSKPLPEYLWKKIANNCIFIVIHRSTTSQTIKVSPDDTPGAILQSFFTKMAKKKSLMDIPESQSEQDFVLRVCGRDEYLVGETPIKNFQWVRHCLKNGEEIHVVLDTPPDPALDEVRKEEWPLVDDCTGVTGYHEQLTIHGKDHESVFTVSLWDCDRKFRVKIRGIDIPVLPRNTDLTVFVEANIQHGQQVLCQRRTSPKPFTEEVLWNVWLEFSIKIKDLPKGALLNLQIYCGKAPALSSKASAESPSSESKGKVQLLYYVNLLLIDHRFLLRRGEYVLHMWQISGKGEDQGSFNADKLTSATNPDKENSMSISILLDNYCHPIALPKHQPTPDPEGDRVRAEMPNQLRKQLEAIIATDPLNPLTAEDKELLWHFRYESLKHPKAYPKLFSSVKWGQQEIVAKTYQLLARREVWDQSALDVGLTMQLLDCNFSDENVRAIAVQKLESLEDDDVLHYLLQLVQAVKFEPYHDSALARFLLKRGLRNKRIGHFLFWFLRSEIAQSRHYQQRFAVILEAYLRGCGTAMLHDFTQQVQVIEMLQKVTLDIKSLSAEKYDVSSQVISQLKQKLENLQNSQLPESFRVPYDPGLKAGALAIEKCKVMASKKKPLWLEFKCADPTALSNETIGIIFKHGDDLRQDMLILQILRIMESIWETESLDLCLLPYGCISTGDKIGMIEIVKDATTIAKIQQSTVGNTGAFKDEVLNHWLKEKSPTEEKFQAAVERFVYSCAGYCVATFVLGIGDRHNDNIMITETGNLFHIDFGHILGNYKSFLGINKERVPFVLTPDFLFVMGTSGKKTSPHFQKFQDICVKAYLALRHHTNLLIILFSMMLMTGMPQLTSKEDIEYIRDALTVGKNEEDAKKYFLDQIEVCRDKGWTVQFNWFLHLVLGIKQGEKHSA
T1 sequence (P48736 whole entry): as above

Consider `C[C@@H](C1CC1)N1Cc2cc(-c3ccn4nc(N)c(C(=O)Nc5ccc(C#N)cc5)c4n3)cc(NS(C)(=O)=O)c2C1=O` [Example 393], for which the concentration for half-maximal inhibition (IC50) at PI3Kγ (p120γ) was less than 0.1 µM; at PI3Kγ (setting [1]) it was 0.1 to 1 µM.
Take `Cc1cc(-c2ccn3nc(N)c(C(=O)N[C@H]4CCNC4=O)c3n2)cc2c1C(=O)N([C@@H](C)C1CC1)C2` [Example 225]: the IC50 on PI3Kγ (p120γ) (Table 2, p120γ) is less than 0.1 µM; at PI3Kγ (setting [2]), 0.1 to 1 µM.
For `Cc1cc(-c2ccn3nc(N)c(C(=O)NC4(C(F)(F)F)CC4)c3n2)cc2c1C(=O)N([C@@H](C)C1CC1)C2` [Example 262] the same measures were less than 0.1 µM and 0.1 to 1 µM.
As to `C[C@@H](C1CC1)N1Cc2cc(-c3ccn4nc(N)c(C(=O)N[C@@H](CO)C5CC5)c4n3)cc(C(C)(C)O)c2C1=O` [Example 453], the IC50 is less than 0.1 µM at PI3Kγ (p120γ) (Table 6, p120γ) and 0.1 to 1 µM at PI3Kγ (setting [3]).
For `C[C@@H](C1CC1)N1Cc2cc(-c3ccn4nc(N)c(C(=O)N[C@H]5CNC[C@H]5O)c4n3)cc(OC(F)(F)F)c2C1=O` [Example 417] the same measures were less than 0.1 µM and more than 1 µM.
`Cc1cc(-c2ccn3nc(N)c(C(=O)NC(C)C)c3n2)cc2c1C(=O)N([C@@H](C)C1CC1)C2` [Example 252]: the half-inhibitory concentration (IC50) at PI3Kγ (p120γ) (Table 2, p120γ) was less than 0.1 µM; on PI3Kγ (setting [2]), 0.1 to 1 µM.
On to `C[C@@H](C1CC1)N1Cc2cc(-c3ccn4nc(N)c(C(=O)N[C@@H]5CC[C@@H](O)C5)c4n3)cc(OC(F)(F)F)c2C1=O` [Example 37, 2-Amino-5-{2-[(1S)-1-cyclopropylethyl]-1-oxo-7-(trifluoromethoxy)-2,3-dihydro-1H-isoindol-5-yl}-N-[(1R,3R)-3-hydroxycyclopentyl]pyrazolo[1,5-a]pyrimidine-3-carboxamide], for which the IC50 was less than 0.1 µM at PI3Kγ (p120γ) (Table 1, p120γ) and less than 0.1 µM at PI3Kγ (setting [4]).
For the molecule `CC[C@H](N1Cc2cc(-c3ccn4nc(N)c(C(=O)NC5CC5)c4n3)cc(NS(C)(=O)=O)c2C1=O)C(F)(F)F` [Example 124, 2-Amino-N-cyclopropyl-5-{7-methanesulfonamido-1-oxo-2-[(2S)-1,1,1-trifluorobutan-2-yl]-2,3-dihydro-1H-isoindol-5-yl}pyrazolo[1,5-a]pyrimidine-3-carboxamide], the IC50 is less than 0.1 µM on PI3Kγ (p120γ) (Table 1, p120γ) and less than 0.1 µM on PI3Kγ (setting [4]).
Regarding `Cc1cc(-c2ccn3nc(N)c(C(=O)Nc4ccc(Cl)cc4)c3n2)cc2c1C(=O)N([C@@H](C)C1CC1)C2` [Example 299], the IC50 at PI3Kγ (p120γ) (Table 2, p120γ) is less than 0.1 µM; on PI3Kγ (setting [2]), more than 1 µM.
For `Cc1cc(-c2ccn3nc(N)c(C(=O)N4CCC4CO)c3n2)cc2c1C(=O)N(C(C)C1CC1)C2` (centres unmarked) [Example 174] the same measures were less than 0.1 µM and 0.1 to 1 µM.
Taken in the same sequence, the figures for `Cc1cc(-c2ccn3nc(N)c(C(=O)N[C@@H](C)c4ccccc4F)c3n2)cc2c1C(=O)N(C(C)(C)CO)C2` [Example 313] were less than 0.1 µM and 0.1 to 1 µM.
Taken in the same sequence, the figures for `Cc1cc(-c2ccn3nc(N)c(C(=O)N[C@@H](CO)C4CC4)c3n2)cc2c1C(=O)N(CC(C)(C)O)C2` [Example 321] were less than 0.1 µM and 0.1 to 1 µM.
As to `C[C@@H](C1CC1)N1Cc2cc(-c3ccn4nc(N)c(C(=O)N[C@H]5CC[C@H](N)CC5)c4n3)cc(OC(F)(F)F)c2C1=O` [Example 31, 2-Amino-5-{2-[(1S)-1-cyclopropylethyl]-1-oxo-7-(trifluoromethoxy)-2,3-dihydro-1H-isoindol-5-yl}-N-[trans-4-aminocyclohexyl]pyrazolo[1,5-a]pyrimidine-3-carboxamide], the IC50 was less than 0.1 µM at PI3Kγ (p120γ) (Table 1, p120γ) and less than 0.1 µM on PI3Kγ (setting [4]).
In the case of `CNC(=O)c1c(N)nn2ccc(-c3cc(C)c4c(c3)CN([C@@H](C)C3CC3)C4=O)nc12` [Example 216], the concentration for half-maximal inhibition (IC50) is less than 0.1 µM on PI3Kγ (p120γ) (Table 2, p120γ) and 0.1 to 1 µM on PI3Kγ (setting [2]).
Take `CC[C@H](C)NC(=O)c1c(N)nn2ccc(-c3cc4c(c(C(F)(F)F)c3)C(=O)N([C@@H](C)C3CC3)C4)nc12` [Example 343]: the IC50 at PI3Kγ (p120γ) (Table 3, p120γ) was less than 0.1 µM; at PI3Kγ (setting [5]), 0.1 to 1 µM.
As for `C[C@@H](C1CC1)N1Cc2cc(-c3ccn4nc(N)c(C(=O)N[C@@H]5CNC(=O)C5)c4n3)cc(O[C@@H]3CCOC3)c2C1=O` [Example 443], the IC50 on PI3Kγ (p120γ) (Table 6, p120γ) was less than 0.1 µM; at PI3Kγ (setting [3]), more than 1 µM.
Consider `Cc1cc(-c2ccn3nc(N)c(C(=O)NC(C)C(N)=O)c3n2)cc2c1C(=O)N([C@@H](C)C1CC1)C2` (some centres unmarked) [Example 224], for which the IC50 at PI3Kγ (p120γ) (Table 2, p120γ) is less than 0.1 µM; at PI3Kγ (setting [2]) it was 0.1 to 1 µM.
As to `C[C@H](CO)NC(=O)c1c(N)nn2ccc(-c3cc4c(c(OC(F)(F)F)c3)C(=O)N([C@@H](C)C(F)(F)F)C4)nc12` [Example 27, 2-Amino-N-[(2R)-1-hydroxypropan-2-yl]-5-[1-oxo-7-(trifluoromethoxy)-2-[(2S)-1,1,1-trifluoropropan-2-yl]-2,3-dihydro-1H-isoindol-5-yl]pyrazolo[1,5-a]pyrimidine-3-carboxamide], the IC50 at PI3Kγ (p120γ) (Table 1, p120γ) was less than 0.1 µM; at PI3Kγ (setting [4]), less than 0.1 µM.
Consider `Cc1cc(-c2ccn3nc(N)c(C(=O)NC4CC(F)(F)C4)c3n2)cc2c1C(=O)N([C@@H](C)C1CC1)C2` [Example 258], for which the IC50 at PI3Kγ (p120γ) (Table 2, p120γ) is less than 0.1 µM; at PI3Kγ (setting [2]), 0.1 to 1 µM.
Consider `Cc1cc(-c2ccn3nc(N)c(C(=O)N[C@H]4CC[C@H](O)C4)c3n2)cc2c1C(=O)N([C@@H](C)C1CC1)C2` [Example 3, 2-Amino-5-{2-[(1S)-1-cyclopropylethyl]-7-methyl-1-oxo-2,3-dihydro-1H-isoindol-5-yl}-N-[(1S,3S)-3-hydroxycyclopentyl]pyrazolo[1,5-a]pyrimidine-3-carboxamide], for which the IC50 on PI3Kγ (p120γ) (Table 1, p120γ) is less than 0.1 µM; at PI3Kγ (setting [4]), less than 0.1 µM.
On to `C[C@@H](C1CC1)N1Cc2cc(-c3ccn4nc(N)c(C(=O)NC(C)(C)CO)c4n3)cc(NS(C)(=O)=O)c2C1=O` [Example 94, 2-Amino-5-{2-[(1S)-1-cyclopropylethyl]-7-methanesulfonamido-1-oxo-2,3-dihydro-1H-isoindol-5-yl}-N-(1-hydroxy-2-methylpropan-2-yl)pyrazolo[1,5-a]pyrimidine-3-carboxamide], for which the IC50 is less than 0.1 µM on PI3Kγ (p120γ) (Table 1, p120γ) and less than 0.1 µM at PI3Kγ (setting [4]).
For the molecule `C[C@@H](C1CC1)N1Cc2cc(-c3ccn4nc(N)c(C(=O)NC5CC5)c4n3)cc(S(=O)(=O)C3CCC3)c2C1=O` [Example 136, 2-Amino-5-[7-(cyclobutanesulfonyl)-2-[(1S)-1-cyclopropylethyl]-1-oxo-2,3-dihydro-1H-isoindol-5-yl]-N-cyclopropylpyrazolo[1,5-a]pyrimidine-3-carboxamide], the IC50 was less than 0.1 µM at PI3Kγ (p120γ) (Table 1, p120γ) and less than 0.1 µM on PI3Kγ (setting [4]).
With `Cc1cc(-c2ccn3nc(N)c(C(=O)NC4(c5ccccc5)CC4)c3n2)cc2c1C(=O)N([C@@H](C)C1CC1)C2` [Example 281], the IC50 at PI3Kγ (p120γ) (Table 2, p120γ) was less than 0.1 µM; at PI3Kγ (setting [2]) it was more than 1 µM.
`C[C@@H](C1CC1)N1Cc2cc(-c3ccn4nc(N)c(C(N)=O)c4n3)cc(C(F)(F)F)c2C1=O` [Example 66]: the IC50 at PI3Kγ (p120γ) (Table 1, p120γ) was less than 0.1 µM; at PI3Kγ (setting [4]), 0.1 to 1 µM.
Take `C[C@@H](C1CC1)N1Cc2cc(-c3ccn4nc(N)c(C(=O)N[C@H]5CCC[C@H](N)C5)c4n3)cc(C(F)(F)F)c2C1=O` [Example 367]: the IC50 at PI3Kγ (p120γ) (Table 3, p120γ) is less than 0.1 µM; at PI3Kγ (setting [5]) it was more than 1 µM.
For `Cc1cc(-c2ccn3nc(N)c(C(=O)NC4CC4)c3n2)cc2c1C(=O)N(CC(C)(C)O)C2` [Example 319], the half-inhibitory concentration (IC50) on PI3Kγ (p120γ) (Table 2, p120γ) was less than 0.1 µM; at PI3Kγ (setting [2]) it was 0.1 to 1 µM.
As to `C[C@@H](C1CC1)N1Cc2cc(-c3ccn4nc(N)c(C(=O)N[C@H]5CNC(=O)C5)c4n3)cc(NS(C)(=O)=O)c2C1=O` [Example 374], the IC50 on PI3Kγ (p120γ) was less than 0.1 µM; on PI3Kγ (setting [1]), 0.1 to 1 µM.
Take `C[C@@H](C1CC1)N1Cc2cc(-c3ccn4nc(N)c(C(=O)N[C@H]5CCNC5=O)c4n3)cc(NS(C)(=O)=O)c2C1=O` [Example 372]: the figures for the half-maximal inhibitory concentration (IC50) at PI3Kγ (p120γ) and at PI3Kγ (setting [1]) were less than 0.1 µM and 0.1 to 1 µM, respectively.
As for `C[C@@H](C1CC1)N1Cc2cc(-c3ccn4nc(N)c(C(=O)N[C@@H]5CCC[C@H](N(C)C)C5)c4n3)cc(C(F)(F)F)c2C1=O` [Example 362], the IC50 at PI3Kγ (p120γ) (Table 3, p120γ) is less than 0.1 µM; at PI3Kγ (setting [5]), 0.1 to 1 µM.
In the case of `C[C@@H](C1CC1)N1Cc2cc(-c3ccn4nc(N)c(C(=O)NCCO)c4n3)cc(NS(C)(=O)=O)c2C1=O` [Example 383], the IC50 is less than 0.1 µM at PI3Kγ (p120γ) and 0.1 to 1 µM at PI3Kγ (setting [1]).
Take `C[C@@H](C1CC1)N1Cc2cc(-c3ccn4nc(N)c(C(=O)NC5CC5)c4n3)cc(N3CC[C@@H](O)C3)c2C1=O` [Example 150, 2-Amino-N-cyclopropyl-5-{2-[(1S)-1-cyclopropylethyl]-7-[(3R)-3-hydroxypyrrolidin-1-yl]-1-oxo-2,3-dihydro-1H-isoindol-5-yl}pyrazolo[1,5-a]pyrimidine-3-carboxamide]: the IC50 is less than 0.1 µM at PI3Kγ (p120γ) (Table 1, p120γ) and less than 0.1 µM at PI3Kγ (setting [4]).
`Cc1cc(-c2ccn3nc(N)c(C(=O)NC4CCNCC4)c3n2)cc2c1C(=O)N([C@@H](C)C1CC1)C2` [Example 179]: the IC50 was less than 0.1 µM at PI3Kγ (p120γ) (Table 2, p120γ) and 0.1 to 1 µM at PI3Kγ (setting [2]).
Taken in the same sequence, the figures for `Cc1cc(-c2ccn3nc(N)c(C(=O)N[C@H]4CCC[C@H](O)C4)c3n2)cc2c1C(=O)N([C@@H](C)C1CC1)C2` [Example 244] were less than 0.1 µM and 0.1 to 1 µM.
For `Cc1cc(-c2ccn3nc(N)c(C(=O)NC[C@H]4CCCO4)c3n2)cc2c1C(=O)N([C@@H](C)C1CC1)C2` [Example 269] the same measures were less than 0.1 µM and 0.1 to 1 µM.
